Experimental data published in patent US20070054838A1, “METHOD FOR IMPROVING DIAGNOSTIC QUALITY IN ECHOCARDIOGRAPHY” (priority 2005, published 2007).

What was measured:
[1] = pharmacokinetic studies of oral cilobradine in cats; assay type: in vivo
Description: (§1) For example, the following dosages relevant for practicing the present invention with the bradycardic agent cilobradine in cats and dogs, have been determined in appropriate pharmacokinetic studies performed by the inventors. The single oral dose of cilobradine for potent heart rate reduction in cats is 0.2-0.4 mg/kg. The single oral dose of cilobradine for potent heart rate reduction in dogs is 0.3 mg/kg. […] Peak plasma levels are reached 0.5 hours after oral administration in cats and after 1 to 2 hours in dogs.

[2] = pharmacokinetic studies of oral cilobradine in dogs; assay type: in vivo
Description: as §1

[3] = tested on: cats suffering from asymptomatic HCM; assay: clinical field study, echocardiography in cats suffering from asymptomatic HCM; assay type: in vivo; conditions: during treatment, days 3 and 6; orally once daily for 5 days; four cats; at baseline not possible in 2 of 4 cats
Description: The use according to the invention of an If channel blocker, namely cilobradine, was investigated in a clinical field study with cats suffering from asymptomatic HCM.
Four cats diagnosed as suffering from asymptomatic HCM by means of motion mode […] (left ventricular wall thickness>6 mm), received cilobradine orally once daily for 5 consecutive days. Detailed clinical examinations were conducted at baseline and on days 1, 2, 3, 6 and 9. ECG measurements were performed at baseline and on days 3 and 6 of the study.
The composition used in the experiment was as follows. • Oral solution containing 2 mg/ml cilobradine • Active ingredient added to 0.9% NaCl solution
The results of the experiment, measuring the left ventricular E to A ratios obtained at baseline and under cilobradine treatment, are shown in enclosed FIG. 1.

[4] = tested on: hyperpolarisation activated, cAMP-modulated cation current channels (HCN); conditions: cardiac conductive tissues; cited from earlier work

SMILES | Time at which peak plasma levels are reached ([1]; after oral administration) | Absolute bioavailability of oral formulations ([1]; oral) | Single oral dose for potent heart rate reduction ([1]; oral) | Absolute bioavailability of oral formulations [2] | Single oral dose for potent heart rate reduction [2] | Calculation of left ventricular E/A ratios [3] | Block of HCN channels (If current) [4]
COc1ccc(CCN2CCCC(CN3CCc4cc(OC)c(OC)cc4CC3=O)C2)cc1OC (centres unmarked) [cilobradine] | 0.5 h | 22.6% | 0.2 to 0.4 mg/kg | 26-43% | 0.3 mg/kg | possible in all cats | selectively block
COc1ccc(CCN(C)CCCN2CCc3cc(OC)c(OC)cc3CC2=O)cc1OC [zatebradine] | – | – | – | – | – | – | selectively block
